Laboratory results as given in BindingDB's records for doi:10.1021/jm1001698 (Institute of Health Sciences, 2010).

Biological target: Bcl-xL (Homo sapiens)
Experiment: Displacement of FITC-labeled Bak-BH3 peptide from Bcl-XL after 1 hr by fluorescence polarization assay

IC50: 1760 nM
SMILES: C=c1c(-c2c(O)c3c(C=N[C@@H]4C(=O)N5[C@@H]4SC(C)(C)[C@@H]5C(=O)O)c(O)c(O)c(=C(C)C)c3c(O)c2=C)c(O)c2c(C=N[C@@H]3C(=O)N4[C@@H]3SC(C)(C)[C@@H]4C(=O)O)c(O)c(O)c(=C(C)C)c2c1O [sodium(2S,2'S,5R,5'R,6R,6'R)-6,6'-((1E,1'E)-(6,6',7,7'-tetrahydroxy-5,5'-diisopropyl-3,3'-dimethyl-1,1',4,4'-tetraoxo-1,1',4,4'-tetrahydro-2,2'-binaphthyl-8,8'-diyl)bis(methan-1-yl-1-ylidene)bis(azan-1-yl-1-ylidene))bis(3,3-dimethyl-7-oxo-4-thia-1-azabicyclo[3.2.0]heptane-2-carboxylate)]
